The values that follow are results of earlier work, collected in patent US11524087B2, “Microwave assisted methods and systems for surface decontamination” (priority 2019, dated 2022).

Structures are written as SMILES.

`[O][Cl+][O-]` [CD, chlorine dioxide]: the “short term exposure limit (STEL)” value (15-minute) is reported as 0.25 ppm. Under “NIOSH”, the “immediately damaging to life and health (IDLH) level” value is 5 ppm. For the setting “OSHA”, the “permissible exposure limit (PEL)” value is given as 0.1 ppm.
